Patent US6448034B1, “Production of variant nisin” (priority 1994, dated 2002)
≈ marks a conversion by molar mass, not a printed value.

Assays:
[1] = system: Lactobacillus helveticus CH-1; test: Plate diffusion bioassay of cell-free extracts / culture supernatants; assay type: cell-based; conditions: antimicrobial activity in culture supernatants of gene-replaced strains, plate diffusion bioassays
Method: 150 μl samples of cell free extracts from strains: 4, FI5876; 5, FI7990; 6, FI8070; 7, FI8198; 8, FI8199 were loaded into wells bored in MRS agar seeded with the indicator strains Lactobacillus helveticus CH-1. Plates were incubated overnight at 42° C. Standards included on the assay plate are: 1,50; 2,100; 3,200; 9,300; 10,400 U/ml.
Nisin activity in Lactococcal strains was assayed by both deferred and direct means. Plate diffusion bioassays were performed as previously described (Dodd et al (1992) Appl. Environ. Microbiol. 58, 3683-3693. Colonies growing on the surface of a GM17 plate were directly assayed by inverting over chloroform for 12 minutes and overlaying with agar seeded with the nisin sensitive L. lactis strain MG1614. Plates were incubated overnight and zone sizes around colonies compared with those of controls. Nisin immunity was determined by streaking cultures on a series of GM17 agar plates containing an increasing concentration of nisin and assessing the degree of growth at the different nisin levels. Control cultures (FI5876, positive) and MG1614 (negative) were included on each plate.
This corresponds to an increase of approximately 50% of nisin A levels, under the conditions used here (Table 1). This higher level of production was not found in the extracts of FI8199, producing the double mutant nisin A/Dha5A,Dha33A. […] In all cases the yield for a particular nisin variant was higher when using this gene replacement strategy than when the equivalent plasmid-encoded gene was employed in a plasmid complementation system (Table 3, Dodd et al (1992) (1993) supra).

[2] = system: sensitive L. Lactis strain MG1614; test: Minimum inhibitory concentration (MIC); assay type: cell-based; conditions: Table 5
[3] = system: FI7847 [nisA-(fs)]; test: Induction by nisin / nisin variants as inducing agent; assay type: cell-based, L. lactis; set-up: Induction: unit not given here; conditions: for Induction: inducing agent at 100 ng ml^−1, strain FI7847
Method: A particularly preferred embodiment of the third aspect of the invention is wherein the cells are cultured in the presence of nisA nisin or a variant nisin which can induce nisin expression. […] By adding sub-inhibitory concentrations of nisin to the growth medium, during fermentation, higher levels of the variant nisin are produced. Any variants that are less efficient as inducing agents benefit from the inclusion of nisin in the growth medium (ie a nisin induction step in the purification procedure). The amount of induction varies depending on the initial induction capacity of any particular variant (with I30W nisin A production more than doubled as a result of induction). Induction may be routinely included in the method as a means of maximising production levels. Any concerns about contamination with the wild type molecule are minimal as the nisin concentration required for induction is negligible compared to the amount of nisin variant being purified. Conveniently, the nisA nisin is a minimum amount that provides maximal induction of nisin production. This amount can be determined empirically by a person skilled in the art. Suitable nisA nisin concentrations for induction in this embodiment are from 1 nM to 500 nM, preferably 10 nM to 250 nM, more preferably 50 nM to 150 nM, most preferably 100 nM.
In some circumstances it is desirable to add nisA nisin as an inducer.

## C=C(NC(=O)[C@@H](NC(=O)[C@H](Cc1c[nH]cn1)NC(=O)[C@@H](NC(=O)[C@H](CO)NC(=O)[C@@H]1CS[C@@H](C)[C@H]2NC(=O)[C@H](C)NC(=O)[C@H](NC(=O)[C@H](CCCCN)NC(=O)[C@H](CCSC)NC(=O)[C@H](CC(N)=O)NC(=O)[C@@H]3CS[C@@H](C)[C@@H](NC(=O)[C@H](CCCCN)NC(=O)[C@@H]4CS[C@@H](C)[C@@H](NC(=O)[C@@H]5CSC[C@@H](NC(=O)/C(=C/C)NC(=O)[C@@H](N)[C@@H](C)CC)C(=O)N[C@@H]([C@@H](C)CC)C(=O)NC(=C)C(=O)N[C@@H](CC(C)C)C(=O)N5)C(=O)N5CCC[C@H]5C(=O)NCC(=O)N4)C(=O)NCC(=O)N[C@@H](C)C(=O)N[C@@H](CC(C)C)C(=O)N[C@@H](CCSC)C(=O)NCC(=O)N3)[C@H](C)SC[C@H](NC2=O)C(=O)N[C@@H](CCCCN)C(=O)N1)[C@@H](C)CC)C(C)C)C(=O)N[C@@H](CCCCN)C(=O)O [H27K]
[1]
  Activity (% of wt): 100 % of wt
[2]
  MIC: 130 µg/mL (≈ 38.9 µM)
[3]
  Induction: 86

## C=C(NC(=O)[C@@H](NC(=O)[C@H](Cc1c[nH]cn1)NC(=O)[C@H](Cc1c[nH]c2ccccc12)NC(=O)[C@H](CO)NC(=O)[C@@H]1CS[C@@H](C)[C@H]2NC(=O)[C@H](C)NC(=O)[C@H](NC(=O)[C@H](CCCCN)NC(=O)[C@H](CCSC)NC(=O)[C@H](CC(N)=O)NC(=O)[C@@H]3CS[C@@H](C)[C@@H](NC(=O)[C@H](CCCCN)NC(=O)[C@@H]4CS[C@@H](C)[C@@H](NC(=O)[C@@H]5CSC[C@@H](NC(=O)/C(=C/C)NC(=O)[C@@H](N)[C@@H](C)CC)C(=O)N[C@@H]([C@@H](C)CC)C(=O)NC(=C)C(=O)N[C@@H](CC(C)C)C(=O)N5)C(=O)N5CCC[C@H]5C(=O)NCC(=O)N4)C(=O)NCC(=O)N[C@@H](C)C(=O)N[C@@H](CC(C)C)C(=O)N[C@@H](CCSC)C(=O)NCC(=O)N3)[C@H](C)SC[C@H](NC2=O)C(=O)N[C@@H](Cc2c[nH]cn2)C(=O)N1)C(C)C)C(=O)N[C@@H](CCCCN)C(=O)O [I30W]
[1]
  Activity (% of wt): <1 % of wt
[2]
  MIC: 160 µg/mL (≈ 46.7 µM)
[3]
  function as inducer of its own biosynthesis: does not function well as an inducer of its own biosynthesis
  Induction: 41

## H27K, H31K (MSTKDFNLDLVSVSKKDSGASPRITSISLCTPGCKTGALMGCNMKTATCKCSIKVSK; listed as Lactococcus sp.)
[1]
  Activity (% of wt): 10 % of wt

## H27W (MSTKDFNLDLVSVSKKDSGASPRITSISLCTPGCKTGALMGCNMKTATCWCSIHVSK; listed as Lactococcus sp.)
[1]
  Activity (% of wt): <1 % of wt

## H31K (MSTKDFNLDLVSVSKKDSGASPRITSISLCTPGCKTGALMGCNMKTATCHCSIKVSK; listed as Lactococcus sp.)
[1]
  Activity (% of wt): 25 % of wt

## S5A, H27W (MSTKDFNLDLVSVSKKDSGASPRITSIALCTPGCKTGALMGCNMKTATCWCSIHVSK; listed as Lactococcus sp.)
[1]
  Activity (% of wt): 10 % of wt

## ΔM21: variant nisin from nisA M21 deletion (SEQ. ID. No. 41), produced by strain FI8290 (MSTKDFNLDLVSVSKKDSGASPRITSISLCTPGCKTGALMGCNKTATCHCSIHVSK; listed as Lactococcus sp.)
[1]
  Activity (% of wt): <1 % of wt
